Experimental data from ChEMBL document CHEMBL4265944, “Novel amide derivatives of 1,3-dimethyl-2,6-dioxopurin-7-yl-alkylcarboxylic acids as multifunctional TRPA1 antagonists and PDE4/7 inhibitors: A new approach for the treatment of pain” (Eur J Med Chem, 2018).
Active and inactive are the calls of the source. The rule behind the calls is not given here.

Assays:
[1] = target: High affinity 3',5'-cyclic-AMP phosphodiesterase 7A (Homo sapiens, UniProt Q13946); test: Inhibition of recombinant human PDE7A using cAMP as substrate after 10 mins by PDE-Glo Phosphodiesterase Assay
Sequence of High affinity 3',5'-cyclic-AMP phosphodiesterase 7A (Q13946 whole entry): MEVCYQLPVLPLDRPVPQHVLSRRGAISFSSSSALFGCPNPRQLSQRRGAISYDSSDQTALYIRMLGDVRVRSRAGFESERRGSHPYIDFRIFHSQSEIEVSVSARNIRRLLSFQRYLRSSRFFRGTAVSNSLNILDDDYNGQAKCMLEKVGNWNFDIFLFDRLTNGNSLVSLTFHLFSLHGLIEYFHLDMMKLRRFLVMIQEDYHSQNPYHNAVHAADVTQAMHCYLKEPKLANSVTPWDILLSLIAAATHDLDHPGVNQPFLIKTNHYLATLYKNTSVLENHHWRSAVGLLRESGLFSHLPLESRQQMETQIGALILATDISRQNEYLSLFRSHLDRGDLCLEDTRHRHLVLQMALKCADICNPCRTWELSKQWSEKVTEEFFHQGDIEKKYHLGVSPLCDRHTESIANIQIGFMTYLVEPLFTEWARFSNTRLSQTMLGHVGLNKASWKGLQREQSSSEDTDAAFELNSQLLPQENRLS

[2] = target: 3',5'-cyclic-AMP phosphodiesterase 4B (Homo sapiens, UniProt Q07343); test: Inhibition of recombinant human PDE4B using cAMP as substrate after 10 mins by PDE-Glo Phosphodiesterase Assay
Sequence of 3',5'-cyclic-AMP phosphodiesterase 4B (Q07343 whole entry): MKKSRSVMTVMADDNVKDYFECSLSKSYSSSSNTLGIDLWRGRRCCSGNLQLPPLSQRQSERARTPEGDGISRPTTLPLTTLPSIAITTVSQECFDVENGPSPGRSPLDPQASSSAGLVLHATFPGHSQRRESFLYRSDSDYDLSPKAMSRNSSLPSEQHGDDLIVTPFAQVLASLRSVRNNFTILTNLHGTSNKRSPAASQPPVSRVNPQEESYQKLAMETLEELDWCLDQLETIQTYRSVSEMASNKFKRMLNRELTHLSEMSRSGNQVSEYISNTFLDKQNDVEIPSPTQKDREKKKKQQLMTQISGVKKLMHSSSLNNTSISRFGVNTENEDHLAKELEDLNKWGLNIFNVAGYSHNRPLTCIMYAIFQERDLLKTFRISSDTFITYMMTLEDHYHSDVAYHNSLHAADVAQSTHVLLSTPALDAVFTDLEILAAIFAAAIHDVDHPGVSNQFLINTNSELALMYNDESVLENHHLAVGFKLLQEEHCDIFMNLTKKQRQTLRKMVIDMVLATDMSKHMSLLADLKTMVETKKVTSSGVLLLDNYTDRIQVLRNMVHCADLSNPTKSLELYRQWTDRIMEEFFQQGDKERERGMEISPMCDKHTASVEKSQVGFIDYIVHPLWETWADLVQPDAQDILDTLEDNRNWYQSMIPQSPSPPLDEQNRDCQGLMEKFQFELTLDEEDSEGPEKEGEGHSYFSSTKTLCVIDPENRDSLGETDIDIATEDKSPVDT

[3] = target: Transient receptor potential cation channel subfamily A member 1 (Homo sapiens) (UniProt O75762); test: Antagonist activity at human TRPA1 expressed in HEK293 cells assessed as decrease in flufenamic acid-evoked increase in intracellular calcium level at 100 uM measured for 180 secs with 1 sec interval by Fluo4-AM dye-based fluorescence assay relative to control; type: cell-based
Sequence of Transient receptor potential cation channel subfamily A member 1 (Homo sapiens) (O75762 whole entry): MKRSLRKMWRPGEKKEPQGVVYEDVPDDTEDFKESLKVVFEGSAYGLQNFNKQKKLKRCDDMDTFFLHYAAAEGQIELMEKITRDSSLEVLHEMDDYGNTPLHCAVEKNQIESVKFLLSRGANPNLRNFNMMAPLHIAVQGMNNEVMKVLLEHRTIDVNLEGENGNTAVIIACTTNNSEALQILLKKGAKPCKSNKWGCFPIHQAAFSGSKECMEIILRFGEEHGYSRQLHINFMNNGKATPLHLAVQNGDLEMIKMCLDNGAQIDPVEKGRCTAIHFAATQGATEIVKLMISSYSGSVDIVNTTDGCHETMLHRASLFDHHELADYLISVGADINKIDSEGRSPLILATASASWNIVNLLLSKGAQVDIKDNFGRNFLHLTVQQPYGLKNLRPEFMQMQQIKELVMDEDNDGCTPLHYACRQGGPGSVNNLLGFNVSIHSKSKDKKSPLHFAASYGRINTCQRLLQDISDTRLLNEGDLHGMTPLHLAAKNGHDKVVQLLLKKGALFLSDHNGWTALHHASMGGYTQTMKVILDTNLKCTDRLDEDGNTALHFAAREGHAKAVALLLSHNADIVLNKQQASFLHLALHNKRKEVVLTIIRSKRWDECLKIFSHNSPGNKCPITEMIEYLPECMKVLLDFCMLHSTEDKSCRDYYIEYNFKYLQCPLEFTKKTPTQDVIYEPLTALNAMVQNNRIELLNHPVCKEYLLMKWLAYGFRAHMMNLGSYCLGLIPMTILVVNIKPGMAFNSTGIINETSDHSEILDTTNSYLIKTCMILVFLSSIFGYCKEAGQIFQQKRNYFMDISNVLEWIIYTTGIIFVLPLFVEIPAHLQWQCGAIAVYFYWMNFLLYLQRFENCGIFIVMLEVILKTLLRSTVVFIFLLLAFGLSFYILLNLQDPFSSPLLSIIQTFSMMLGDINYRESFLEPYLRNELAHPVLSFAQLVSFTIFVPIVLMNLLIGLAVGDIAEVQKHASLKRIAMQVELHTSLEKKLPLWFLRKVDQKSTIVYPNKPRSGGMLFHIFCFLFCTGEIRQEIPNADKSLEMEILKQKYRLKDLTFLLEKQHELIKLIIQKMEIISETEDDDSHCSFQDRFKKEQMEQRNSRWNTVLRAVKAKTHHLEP

[4] = target: Transient receptor potential cation channel subfamily A member 1 (Homo sapiens) (UniProt O75762); test: Antagonist activity at human TRPA1 expressed in HEK293 cells assessed as decrease in flufenamic acid-evoked increase in intracellular calcium level at 10 uM measured for 180 secs with 1 sec interval by Fluo4-AM dye-based fluorescence assay relative to control; type: cell-based
[5] = target: Transient receptor potential cation channel subfamily A member 1 (Homo sapiens) (UniProt O75762); test: Antagonist activity at human TRPA1 expressed in HEK293 cells assessed as decrease in flufenamic acid-evoked increase in intracellular calcium level at 1 uM measured for 180 secs with 1 sec interval by Fluo4-AM dye-based fluorescence assay relative to control; type: cell-based
Rattus norvegicus [6] = test: Antiallodynic activity in Wistar rat assessed as reduction in oxaliplatin-induced neuropathic pain in early phase by measuring paw withdrawal force at 10 mg/kg, ip measured after 60 mins by Von Frey test; type: functional, organism-based
Mus musculus [7] = test: Potency index, ratio of ED50 for HC-030031 to test compound ED50 for formalin-induced nociception ip dosed Swiss CD-1 mouse model assessed as time spent on licking or biting formalin injected right hind paw […] measured during phase 2; type: functional
Rattus norvegicus [8] = test: Antiinflammatory activity in Wistar rat assessed as inhibition of LPS-induced TNF-alpha level at 50 mg/kg, ip measured at 1 to 2 hrs post dose by ELISA relative to control; type: functional
Mus musculus [9] = test: Antiinflammatory activity in formalin-induced nociception Swiss CD-1 mouse model assessed as time spent on licking or biting formalin injected right hind paw during neurogenic phase at 10 mg/kg, ip measured during phase 1 (reference value: 33 +/- 1.45 sec); type: functional
Mus musculus [10] = test: Antiinflammatory activity in formalin-induced nociception ip dosed Swiss CD-1 mouse model assessed as time spent on licking or biting formalin injected right hind paw […] measured during phase 2; type: functional; conditions: Swiss CD-1, ip
Mus musculus [11] = test: Antiinflammatory activity in formalin-induced nociception Swiss CD-1 mouse model assessed as time spent on licking or biting formalin injected right hind paw during […] phase at 10 mg/kg, ip measured during phase 2 (reference value: 83.63 +/- 12.98 sec); type: functional
Mus musculus [12] = test: Antiinflammatory activity in formalin-induced nociception Swiss CD-1 mouse model assessed as time spent on licking or biting formalin injected right hind paw during neurogenic phase at 5 mg/kg, ip measured during phase 1 (reference value: 33 +/- 1.45 sec); type: functional
Mus musculus [13] = test: Antiinflammatory activity in formalin-induced nociception Swiss CD-1 mouse model assessed as time spent on licking or biting formalin injected right hind paw during neurogenic phase at 2.5 mg/kg, ip measured during phase 1 (reference value: 33 +/- 1.45 sec); type: functional
Rattus norvegicus [14] = test: Antiallodynic activity in Wistar rat assessed as reduction in oxaliplatin-induced neuropathic pain in late phase by measuring paw withdrawal force at 10 mg/kg, ip measured after 60 mins by Von Frey test; type: functional, organism-based
[15] = Plasma concentration in Wistar rat model of LPS-induced inflammation at 50 mg/kg, ip measured at 2 hrs post dose by HPLC method; type: ADME, organism-based
Mus musculus [16] = test: Antiinflammatory activity in formalin-induced nociception Swiss CD-1 mouse model assessed as time spent on licking or biting formalin injected right hind paw […] at 5 mg/kg, ip measured during phase 2 (reference value: 83.63 +/- 12.98 sec); type: functional
Rattus norvegicus [17] = test: Anti-inflammatory activity in Wistar rat assessed as inhibition of carrageenan-induced paw edema at 20 mg/kg, ip measured at 3 hrs post dose relative to control; type: functional
Rattus norvegicus [18] = test: Anti-inflammatory activity in Wistar rat assessed as inhibition of carrageenan-induced paw edema at 20 mg/kg, ip measured at 1 hr post dose relative to control; type: functional
[19] = Plasma concentration in Wistar rat model of LPS-induced inflammation at 50 mg/kg, ip measured at 1 hr post dose by HPLC method; type: ADME, organism-based
Mus musculus [20] = test: Antiinflammatory activity in formalin-induced nociception Swiss CD-1 mouse model assessed as time spent on licking or biting formalin injected right hind paw during […] phase at 2.5 mg/kg, ip measured during phase 2 (reference value: 83.63 +/- 12.98 sec); type: functional
Rattus norvegicus [21] = test: Anti-inflammatory activity in Wistar rat assessed as inhibition of carrageenan-induced paw edema at 20 mg/kg, ip measured at 2 hrs post dose relative to control; type: functional
[22] = Plasma concentration in Wistar rat model of LPS-induced inflammation at 50 mg/kg, ip measured at 1.5 hrs post dose by HPLC method; type: ADME, organism-based
Rattus norvegicus [23] = test: Antiallodynic activity in Wistar rat assessed as reduction in oxaliplatin-induced neuropathic pain in late phase by measuring paw withdrawal latency time at 1 mg/kg, ip measured after 60 secs by cold plate test; type: functional, organism-based
Rattus norvegicus [24] = test: Anti-inflammatory activity in Wistar rat assessed as inhibition of carrageenan-induced paw edema at 40 mg/kg, ip measured at 3 hrs post dose relative to control; type: functional
Rattus norvegicus [25] = test: Anti-inflammatory activity in Wistar rat assessed as inhibition of carrageenan-induced paw edema at 100 mg/kg, ip measured at 1 hr post dose relative to control; type: functional
Rattus norvegicus [26] = test: Anti-inflammatory activity in Wistar rat assessed as inhibition of carrageenan-induced paw edema at 40 mg/kg, ip measured at 1 hr post dose relative to control; type: functional
Mus musculus [27] = test: Antiinflammatory activity in formalin-induced nociception Swiss CD-1 mouse model assessed as time spent on licking or biting formalin injected right hind paw during neurogenic phase at 2.5 mg/kg, ip measured during phase 2 (reference value: 158.3 +/- 12.34 sec); type: functional
Mus musculus [28] = test: Antiinflammatory activity in formalin-induced nociception Swiss CD-1 mouse model assessed as time spent on licking or biting formalin injected right hind paw during neurogenic phase at 2.5 mg/kg, ip measured during phase 1 (reference value: 97 +/- 6.86 sec); type: functional
Mus musculus [29] = test: Antiinflammatory activity in formalin-induced nociception Swiss CD-1 mouse model assessed as time spent on licking or biting formalin injected right hind paw during neurogenic phase at 5 mg/kg, ip measured during phase 2 (reference value: 158.3 +/- 12.34 sec); type: functional
Mus musculus [30] = test: Antiinflammatory activity in formalin-induced nociception Swiss CD-1 mouse model assessed as time spent on licking or biting formalin injected right hind paw during neurogenic phase at 10 mg/kg, ip measured during phase 1 (reference value: 97 +/- 6.86 sec); type: functional
Rattus norvegicus [31] = test: Anti-inflammatory activity in Wistar rat assessed as inhibition of carrageenan-induced paw edema at 100 mg/kg, ip measured at 2 hrs post dose relative to control; type: functional
Mus musculus [32] = test: Antiinflammatory activity in formalin-induced nociception Swiss CD-1 mouse model assessed as time spent on licking or biting formalin injected right hind paw during neurogenic phase at 5 mg/kg, ip measured during phase 1 (reference value: 97 +/- 6.86 sec); type: functional
Rattus norvegicus [33] = test: Anti-inflammatory activity in Wistar rat assessed as inhibition of carrageenan-induced paw edema at 40 mg/kg, ip measured at 2 hrs post dose relative to control; type: functional
Mus musculus [34] = test: Antiinflammatory activity in formalin-induced nociception Swiss CD-1 mouse model assessed as time spent on licking or biting formalin injected right hind paw during neurogenic phase at 10 mg/kg, ip measured during phase 2 (reference value: 158.3 +/- 12.34 sec); type: functional
Rattus norvegicus [35] = test: Anti-inflammatory activity in Wistar rat assessed as inhibition of carrageenan-induced paw edema at 100 mg/kg, ip measured at 3 hrs post dose relative to control; type: functional

| IC50 [1] | IC50 [2] | inhibition [3] | inhibition [4] | inhibition [5] | Structure (SMILES) | also measured |
| --- | --- | --- | --- | --- | --- | --- |
| > 200 µM | > 200 µM | 7% |  |  | CCOc1nc2c(c(=O)n(C)c(=O)n2C)n1CC(=O)NCc1ccccc1Cl |  |
| > 200 µM | > 200 µM | 2% |  |  | COc1nc2c(c(=O)n(C)c(=O)n2C)n1CC(=O)Nc1cccc(Cl)c1 |  |
| > 200 µM | > 200 µM | 5% |  |  | CCOc1nc2c(c(=O)n(C)c(=O)n2C)n1CC(=O)Nc1cccc(Cl)c1 |  |
| > 200 µM | > 200 µM | 59% | 47% | 10% | CCOc1nc2c(c(=O)n(C)c(=O)n2C)n1CC(=O)Nc1ccc(C(C)(C)C)cc1 | Activity (Rattus norvegicus [6]): Active; Ratio ED50 (Mus musculus [7]): 10 - 13; inhibition (Rattus norvegicus [8]): inactive; Time (Mus musculus [9]): 32.17 s; ED50 (Mus musculus [10]): 2.57 mg/kg; Time (Mus musculus [11]): 9.67 s; Time (Mus musculus [12]): 30.83 s; Time (Mus musculus [13]): 32 s; Activity (Rattus norvegicus [14]): Active; concentration at 2 h [15]: 2.25 µM; Time (Mus musculus [16]): 16.33 s; inhibition in vivo at 20 mg/kg (Rattus norvegicus [17]): 50.1%; inhibition in vivo at 20 mg/kg (Rattus norvegicus [18]): 60.5%; concentration at 1 h [19]: 3.75 µM; Time (Mus musculus [20]): 46 s; inhibition in vivo at 20 mg/kg (Rattus norvegicus [21]): 54.3%; concentration at 1.5 h [22]: 2.59 µM; Activity (Rattus norvegicus [23]): Active |

Continued, compound first:

| Structure (SMILES) | IC50 [1] | IC50 [2] | inhibition [3] | inhibition [4] | inhibition [5] | also measured |
| --- | --- | --- | --- | --- | --- | --- |
| CCOc1nc2c(c(=O)n(C)c(=O)n2C)n1CCCC(=O)Nc1ccc(C(C)C)cc1 | 96.3 µM | 32.3 µM | 10% |  |  |  |
| CCCOc1nc2c(c(=O)n(C)c(=O)n2C)n1CCCC(=O)Nc1ccc(C(C)(C)C)cc1 | 7.76 µM | 21.1 µM | 52% | 5% | 5% |  |
| COc1nc2c(c(=O)n(C)c(=O)n2C)n1CC(=O)Nc1ccc(C(C)C)cc1 | > 200 µM | > 200 µM | 39% | 13% | 4% |  |
| CCCCOc1nc2c(c(=O)n(C)c(=O)n2C)n1CCCC(=O)Nc1ccc(C(C)CC)cc1 (stereo not drawn) | 20 µM | 110 µM | 14% |  |  |  |
| COc1nc2c(c(=O)n(C)c(=O)n2C)n1CCCC(=O)Nc1ccc(C(C)(C)C)cc1 | 19.8 µM | 87.5 µM | 13% |  |  |  |
| CC(C)c1ccc(NC(=O)Cn2cnc3c2c(=O)n(C)c(=O)n3C)cc1 | > 200 µM | > 200 µM | 43% | 13% | 0% | inhibition in vivo at 40 mg/kg (Rattus norvegicus [24]): 25.6%; inhibition in vivo at 100 mg/kg (Rattus norvegicus [25]): 24.1%; ED50 (Mus musculus [10]): 33.8 mg/kg; inhibition in vivo at 40 mg/kg (Rattus norvegicus [26]): 12.1%; Time (Mus musculus [27]): 111.33 s; Time (Mus musculus [28]): 82.83 s; inhibition in vivo at 20 mg/kg (Rattus norvegicus [17]): 10%; inhibition in vivo at 20 mg/kg (Rattus norvegicus [18]): 4.7%; inhibition in vivo at 20 mg/kg (Rattus norvegicus [21]): 0.02%; Time (Mus musculus [29]): 76.45 s; Time (Mus musculus [30]): 71 s; inhibition in vivo at 100 mg/kg (Rattus norvegicus [31]): 48.2%; Time (Mus musculus [32]): 73.83 s; inhibition in vivo at 40 mg/kg (Rattus norvegicus [33]): 23.5%; Time (Mus musculus [34]): 13.9 s; inhibition in vivo at 100 mg/kg (Rattus norvegicus [35]): 48.3% |
| CCCOc1nc2c(c(=O)n(C)c(=O)n2C)n1CCCC(=O)Nc1ccc(C(C)CC)cc1 (stereo not drawn) | 9.06 µM | 16.8 µM | 5% |  |  |  |
| CC(C(=O)O)c1cccc(C(=O)c2ccccc2)c1 (stereo not drawn) [KETOPROFEN] |  |  |  |  |  | inhibition in vivo at 20 mg/kg (Rattus norvegicus [17]): 66%; inhibition in vivo at 20 mg/kg (Rattus norvegicus [18]): 23.3%; inhibition in vivo at 20 mg/kg (Rattus norvegicus [21]): 54.2% |
